How the values were obtained:
Polygonum convolvulus = test: Post-emergence action against weeds, greenhouse, visual scoring; format: in vivo; settings: scoring 11 days after application
Method: (§1) Seeds or rhizome pieces of monocotyledonous and dicotyledonous weeds were placed in sandy loam soil in plastic pots, covered with soil and cultivated in a greenhouse under good growth conditions. Three weeks after sowing, the test plants were treated at the 2- to 4-leaf stage. The compounds according to the invention, formulated as wettable powders or as emulsion concentrates, were sprayed onto the green parts of the plants in various dosages at a water application rate of 100 to 800 l/ha (converted). After the test plants had been left to stand in the greenhouse for 10 to 28 days under optimum growth conditions, the effect of the preparations was scored visually in comparison to untreated controls.
0%=no control 100%=complete control

Galium aparine = test: as above; format: in vivo; settings: scoring 11 days after application, 0=no control, 100=complete control
Method: as §1
0=no control 100=complete control

Cc1nn(C)c(O)c1C(=O)c1ccc(C(F)(F)F)cc1S(C)(=O)=O [Compound B1-6, pyrasulfotole]
Polygonum convolvulus Control in % (Polygonum convolvulus; 25 g of ai/ha, 0%=no control, 100%=complete control): 20%

CCOC(=O)COc1cc(-c2nn(C)c(OC(F)F)c2Cl)c(F)cc1Cl [Compound B2-1, pyraflufen-ethyl]
Galium aparine Control in % (Galium aparine; 2 g of ai/ha): 23%

CS(=O)(=O)c1cc(C(F)(F)F)ccc1C(=O)c1cnoc1C1CC1 [Compound B3-3, isoxaflutole]
Polygonum convolvulus Control in % (Polygonum convolvulus; 50 g of ai/ha, 0=no control, 100=complete control): 25%

COCc1cnc(C2=NC(C)(C(C)C)C(=O)N2)c(C(=O)O)c1 (centres unmarked) [Compound B4-2, imazamox]
Galium aparine Control in % (Galium aparine; 10 g of ai/ha): 75%

CCN(C(=O)n1nnn(-c2ccccc2Cl)c1=O)C1CCCCC1 [Compound B8-1, fentrazamide]
Polygonum convolvulus Control in % (Polygonum convolvulus; 250 g of ai/ha, 0%=no control, 100%=complete control): 20%

CCc1cc(C)cc(CC)c1-c1c(OC(=O)C(C)(C)C)n2n(c1=O)CCOCC2 [Compound B9-1, pinoxaden]
Polygonum convolvulus Control in % (Polygonum convolvulus; 15 g of ai/ha, 0=no control, 100=complete control): 20%

sodium salt of 2-iodo-N-[(4-methoxy-6-methyl-1,3,5-triazin-2-yl)carbamoyl]benzenesulfonamide [Compound A-2]
Polygonum convolvulus Control in % (Polygonum convolvulus; 2.5 g of ai/ha, 0%=no control, 100%=complete control): 10%
Galium aparine Control in % (Galium aparine; 2.5 g of ai/ha): 0%
